# Source: Sander's compilation of Henry's law constants (doi:10.1021/je00026a010)
# Test: Henry solubility constant Hcp at 298.15 K (mol/(m3 Pa))
# Conditions: reference: Leighton and Calo (1981)
row,SMILES,Henry solubility constant Hcp
1,"CC(Cl)(Cl)Cl [1,1,1-trichloroethane]",0.00049
2,"ClC(Cl)C(Cl)Cl [1,1,2,2-tetrachloroethane]",0.027
3,"ClCC(Cl)Cl [1,1,2-trichloroethane]",0.012
4,"C=C(Cl)Cl [1,1-dichloroethene]",0.00026
5,"ClCC(Cl)CCl [1,2,3-trichloropropane]",0.029
6,"CC(Cl)CCl (stereo not given) [1,2-dichloropropane]",0.0034
7,"ClCCCCl [1,3-dichloropropane]",0.01
8,"ClCCCCCl [1,4-dichlorobutane]",0.02
9,"ClCCCCCCl [1,5-dichloropentane]",0.018
10,CCCCCl [1-chlorobutane],0.00059
11,CCCCCCCl [1-chlorohexane],0.00041
12,CCCCCCl [1-chloropentane],0.00041
13,CCC(C)Cl (stereo not given) [2-chlorobutane],0.00041
14,c1ccccc1 [benzene],0.0018
15,Clc1ccccc1 [chlorobenzene],0.003
16,ClCCl [dichloromethane],0.003
17,Cc1ccccc1 [methylbenzene],0.0015
18,ClC(Cl)=C(Cl)Cl [tetrachloroethene],0.00061
19,ClC(Cl)(Cl)Cl [tetrachloromethane],0.00036
20,ClC=C(Cl)Cl [trichloroethene],0.001
